Earlier results, collected in patent publication US6806274B1, “Quinazoline derivatives” (AstraZeneca UK Limited, priority 1999, dated 2004).

Target: EGF RTK (Homo sapiens, UniProt P00533)
Conditions: Bioorganic & Medicinal Chemistry Letters, 1997, 7, 2723-2728

Chain of EGF RTK (P00533 25-1210): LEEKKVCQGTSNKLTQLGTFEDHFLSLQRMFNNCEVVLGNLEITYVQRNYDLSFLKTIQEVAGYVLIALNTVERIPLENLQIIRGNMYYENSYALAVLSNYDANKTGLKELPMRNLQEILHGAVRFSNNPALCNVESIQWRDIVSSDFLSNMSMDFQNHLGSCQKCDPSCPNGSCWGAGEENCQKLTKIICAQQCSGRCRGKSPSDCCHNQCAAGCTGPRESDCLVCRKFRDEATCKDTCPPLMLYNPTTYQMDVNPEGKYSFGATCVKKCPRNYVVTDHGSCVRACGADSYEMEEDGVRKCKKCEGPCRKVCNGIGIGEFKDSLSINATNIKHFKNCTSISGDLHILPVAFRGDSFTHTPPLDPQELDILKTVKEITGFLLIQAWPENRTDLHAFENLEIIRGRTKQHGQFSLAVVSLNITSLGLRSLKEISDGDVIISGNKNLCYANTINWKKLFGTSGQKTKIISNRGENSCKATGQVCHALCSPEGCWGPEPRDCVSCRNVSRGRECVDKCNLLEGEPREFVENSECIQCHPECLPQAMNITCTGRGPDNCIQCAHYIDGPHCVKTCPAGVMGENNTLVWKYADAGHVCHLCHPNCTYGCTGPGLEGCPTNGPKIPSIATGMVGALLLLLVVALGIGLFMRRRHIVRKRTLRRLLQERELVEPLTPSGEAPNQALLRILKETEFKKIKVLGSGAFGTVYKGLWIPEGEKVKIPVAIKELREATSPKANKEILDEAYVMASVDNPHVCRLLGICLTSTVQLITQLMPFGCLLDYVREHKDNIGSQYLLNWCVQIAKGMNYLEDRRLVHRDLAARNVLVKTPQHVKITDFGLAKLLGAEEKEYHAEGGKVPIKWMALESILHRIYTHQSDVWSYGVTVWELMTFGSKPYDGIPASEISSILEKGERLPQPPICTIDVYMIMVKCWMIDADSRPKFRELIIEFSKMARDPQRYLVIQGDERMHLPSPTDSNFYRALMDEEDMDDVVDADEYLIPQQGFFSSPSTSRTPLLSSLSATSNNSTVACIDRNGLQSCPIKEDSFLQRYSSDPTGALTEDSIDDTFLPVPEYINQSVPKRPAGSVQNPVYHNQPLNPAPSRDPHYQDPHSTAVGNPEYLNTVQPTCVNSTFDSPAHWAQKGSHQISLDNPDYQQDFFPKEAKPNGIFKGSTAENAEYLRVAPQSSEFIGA

Compound: COc1cc2ncnc(NC(=O)Nc3ccccc3)c2cc1OC [1-(6,7-dimethoxyquinazolin-4-yl)-3-phenylurea]
- activity as an EGF RTK inhibitor: inactive
